Experimental data: patent US12213980B2, “Application of PDE9A inhibitor in preparation of products having elevated Treg content, drugs for preventing and treating inflammatory bowel disease and health care products” (ZHEJIANG UNIVERSITY, priority 2018, dated 2025)
Like-named read-outs stand apart in the source and are kept apart here.

Key:
[1] = test system: DC cells in colon and mesenteric lymph nodes; experiment: Activation test of intestinal mucosa DC in DSS induced model (flow cytometry); format: in vivo, C57 female mice
Protocol: (§1) C57 female mice were selected and weighed about 20 g. All mice were randomly divided into control group (control group), model group (DSS group), sulfasalazine group (AS group) and low dose group (PF3 group). The middle dose group (PF10 group) and the high dose group (PF30 group), a total of 6 groups, 10 mice in each group.
(§2) The control group was treated with deionized water and the remaining 5 groups were fed with 3% DSS solution.
(§3) During the period, the sulfasalazine group was intragastrically administered at a dose of 0.5 g/kg, and the PF-04447943 low-dose group, the middle-dose group, and the high-dose daily gavage were administered at a dose of 3 mg/kg, 10 mg/kg, and 30 mg/kg, respectively. The body weight, water bottle weight and the record were weighed daily. On the 8th day, the mice were sacrificed by deep anesthesia, and the colon, mesenteric lymph nodes, spleen and anus were taken. The length of the colon was measured and the colon was divided into three sections. The anal part specimens were fixed in formalin and the remaining specimens were stored frozen at −80° C. Isolating the mononuclear cells of colon, mesenteric lymph node and spleen, then staining separately, the distribution of DC cells and Treg cells in colon, mesenteric lymph nodes and spleen were determined by flow cytometry. IL-6, IL-12, TNF-α, IL-17 etc were measured by ELISA. SOD activity and MDA amount in colon tissue were measured, and the effect of PDE9A inhibitor PF-04447943 on mouse model was analyzed.
The colon was digested with collagenase, and the mesenteric lymph nodes were ground and sieved through 100 mesh to prepare single cell suspensions. The cell density was adjusted to […], and the DC cell amount was determined for each sample.
FIG. 5 is a control plot of total DC and mature DC in colon, mesenteric lymphatic cleansing in DSS model mice.

[2] = test system: colonic mucin secretion in DSS model mice; experiment: Intestinal mucin secretion test in DSS-induced model; format: in vivo, C57 female mice
Description: FIG. 3 is a control map of colonic mucin secretion in DSS model mice. It can be obtained from FIG. 3. The DSS group lost epithelial integrity, crypt structure, and goblet cell, company with immune cell infiltration, Smooth muscle cell hypertrophy and reduced secretory glycoprotein when compared with the control group.

[3] = test system: SOD activity and MDA amount in colon tissue
Protocol: as §1, §2, §3
After the intestinal tissue homogenization, SOD activity and MDA amount in colon tissue were determined by SOD and MDA assay kits.

DSS mice = experiment: DSS-induced mouse model, overall comparison with sulfasalazine; format: in vivo, C57 female mice; conditions: high-dose PF-04447943 group (30 mg/kg) vs sulfasalazine at conventional dose (0.5 g/kg)
[4] = test system: Treg cells in mesenteric lymph node, spleen and colon; experiment: Activation test of Treg in DSS induction model (flow cytometry); format: in vivo, C57 female mice
Protocol: The colon was digested with collagenase, and the mesenteric lymph nodes and spleen tissues were ground and sieved through 100 mesh to prepare single cell suspensions. The cell density was adjusted to 10^5 cell/100 μl, and the Treg amount was determined for each sample.
Related studies have shown that T cells, especially Treg cells, play a role in the protection of DSS inflammatory bowel disease model. In order to study the role of Treg in the DSS colitis model, three mesenteric lymph nodes, spleen and colon were evaluated based on trial 4, respectively.

[5] = test system: TNF-α, IL-17, IL-6, IL-12/IL-23 in colon tissue
Protocol: as §1, §2, §3
After intestinal tissue homogenization, TNF-α, IL-17, IL-6, IL-12/IL-23 in colon tissue were determined by ELISA kit.

DSS modeled mice = experiment: DSS induced model weight and colon length test; format: in vivo, C57 female mice
[6] = cited from earlier work
[7] = high, medium and low dose groups vs DSS group
[8] = high dose group (30 mg/kg) vs DSS group
[9] = high dose group (30 mg/kg) vs DSS group and control group
[10] = high, medium and low dose groups vs control and DSS groups

C[C@@H]1CN(Cc2ncccn2)C[C@H]1c1nc2c(cnn2C2CCOCC2)c(=O)[nH]1 [PF-04447943]
migration of DC cells from the colon to the mesenteric lymph nodes and DC maturation ([1]; conclusion, dose not stated): can inhibit | activated DC cells in mesenteric lymph node (MLN) [1, 7]: significantly lower than the DSS group | activated DC (mDC) cells in colon ([1]; low, medium and high dose groups (3, 10, 30 mg/kg) vs DSS group): significantly lower than the DSS group | total DC cells in mesenteric lymph node (MLN) ([1]; low, medium and high groups (3, 10, 30 mg/kg) vs DSS group): significantly lower than the DSS group | destruction of intestinal mucosal mucin secretion induced by DSS ([2]; conclusion, dose not stated): significantly inhibit | loss of epithelial integrity and crypt structure, loss of goblet cells, immune cell infiltration, smooth muscle cell hypertrophy, secretory glycoprotein reduction ([2]; low-dose, medium-dose and high-dose groups (3, 10, 30 mg/kg)): gradually reversed | protective effect on colonic epithelial cells ([2]; with increasing dose of PF-04447943 (3, 10, 30 mg/kg)): gradually better | DSS-induced intestinal oxidative stress damage ([3]; conclusion, dose not stated): significantly inhibit | MDA amount in colon tissue ([3]; drug group vs DSS group): lower than that of the DSS group | MDA amount in colon tissue [3, 8]: statistically different from the DSS group | SOD activity in colon tissue [3, 8]: improved compared with the DSS group | efficacy in IL-6 secretion, SOD activity, MDA amount, activation of DC and regulation of Treg (DSS mice): superior to the conventional drug sulfasalazine at conventional dose | DSS-inhibited Treg activation ([4]; conclusion, dose not stated): significantly enhanced | differentiation of CD4+Foxp3+ Treg cells ([4]; conclusion, dose not stated): significantly induced an increase | CD4+FOXP3+ Treg cells in colon [4, 9]: significantly higher than that of the DSS group and the control group | CD4+FOXP3+ Treg cells in mesenteric lymph nodes [4, 9]: significantly higher than that of the DSS group and the control group | CD4+FOXP3+ Treg cells in spleen [4, 9]: significantly higher than that of the DSS group and the control group | CD4+CD25+ Treg cells in colon [4, 7]: significantly higher in the colon than in the DSS group | CD4+CD25+ Treg cells in mesenteric lymph nodes [4, 10]: significantly lower | CD4+CD25+ Treg cells in spleen [4, 10]: significantly lower | DSS-induced inflammatory factors secreted by the intestinal mucosa ([5]; conclusion, dose not stated): significantly inhibits | IL-6 level in colon tissue [5, 8]: significantly lower than those in the DSS group | IL-12/IL-23 level in colon tissue [5, 8]: statistically significant compared with the DSS group | IL-17 level in colon tissue [5, 8]: statistically significant compared with the DSS group | TNF-α level in colon tissue [5, 8]: statistically significant compared with the DSS group | IL-6 level in colon tissue ([5]; middle dose group (10 mg/kg) vs DSS group): significantly lower than those in the DSS group | colon length (DSS modeled mice; PF30 group (30 mg/kg) vs DSS group): significant difference | weight loss and colon shortening in the DSS-induced model (DSS modeled mice; conclusion, dose not stated): inhibited the weight loss and colon shortening

O=C(O)c1cc(/N=N/c2ccc(S(=O)(=O)Nc3ccccn3)cc2)ccc1O [sulfasalazine]
activated DC cells in colon ([1]; sulfasalazine group 0.5 g/kg, compared with PF-04447943 dose groups): lower than the high dose group

vedolizumab: α4β7 integrin antibody approved by the FDA in 2014 for moderate to severe UC and CD
patients with adverse reactions ([6]; CD patients): 37% | patients with adverse reactions ([6]; UC patients): 29% | clinical improvement ([6]; patients treated with vedolizumab): significant Clinical improvement
